Test results reported in ChEMBL document CHEMBL4118183, “Lipophilic methylene blue analogues enhance mitochondrial function and increase frataxin levels in a cellular model of Friedreich's ataxia” (Bioorg Med Chem, 2018).
The source made the active and inactive calls. The rule behind the calls is not given here.

Experiments:
[1] = system: Friedreich's ataxia lymphocyte; experiment: Inhibition of DEM-induced ROS production in human Friedreich's ataxia lymphocytes at 250 to 2500 nM incubated for 16 hrs followed by DEM treatment for 80 mins by DCFH-DA dye based flow cytometry; type: functional, cell-based
[2] = Induction of inner mitochondrial membrane potential depolarization in human Friedreich's ataxia lymphocytes assessed as JC-1 monomers at 250 nM after 16 hrs by JC1-staining based flow cytometry (reference value: 17.3%); type: functional, Friedreich's ataxia lymphocyte
[3] = system: Friedreich's ataxia lymphocyte; experiment: (§1) Increase in frataxin protein expression levels in FRDA patient derived Friedreich's ataxia lymphocytes at 250 nM after 24 to 48 hrs by ELISA; type: functional; conditions: Homo sapiens
[4] = system: Friedreich's ataxia lymphocyte; experiment: Increase in total ATP levels in human Friedreich's ataxia lymphocytes at 2.5 uM after 24 hrs by bioluminescence assay; type: functional, cell-based
[5] = Cytotoxicity against human Friedreich's ataxia lymphocytes assessed as cell viability by measuring live cells at 250 nM after 24 hrs by calceinAM ester/ethidium homodimer-1 staining based flow cytometry (reference value: 88.2%); design: species or system Friedreich's ataxia lymphocyte; conditions: read-out: Activity
[6] = Induction of inner mitochondrial membrane potential depolarization in human Friedreich's ataxia lymphocytes assessed as JC-1 monomers at 2500 nM after 16 hrs by JC1-staining based flow cytometry (reference value: 17.3%); type: functional, Friedreich's ataxia lymphocyte
[7] = Cytotoxicity against human Friedreich's ataxia lymphocytes assessed as cell viability by measuring dead cells at 250 nM after 24 hrs by calceinAM ester/ethidium homodimer-1 staining based flow cytometry (reference value: 11.2%); conditions: friedreich's ataxia lymphocyte, 0.25 µM
[8] = Cytotoxicity against human Friedreich's ataxia lymphocytes assessed as cell viability by measuring dead cells at 250 nM after 48 hrs by calceinAM ester/ethidium homodimer-1 staining based flow cytometry (reference value: 10.6%); conditions: friedreich's ataxia lymphocyte, 0.25 µM
[9] = Cytotoxicity against human Friedreich's ataxia lymphocytes assessed as cell viability by measuring live cells at 2500 nM after 48 hrs by calceinAM ester/ethidium homodimer-1 staining based flow cytometry (reference value: 89.3%); design: species or system Friedreich's ataxia lymphocyte; conditions: read-out: Activity
[10] = Cytotoxicity against human Friedreich's ataxia lymphocytes assessed as cell viability by measuring dead cells at 2500 nM after 48 hrs by calceinAM ester/ethidium homodimer-1 staining based flow cytometry (reference value: 10.6%); conditions: friedreich's ataxia lymphocyte, 2.5 µM
[11] = Induction of inner mitochondrial membrane potential depolarization in human Friedreich's ataxia lymphocytes assessed as JC-1 aggregates at 2500 nM after 16 hrs by JC1-staining based flow cytometry (reference value: 83%); type: functional, Friedreich's ataxia lymphocyte
[12] = Cytotoxicity against human Friedreich's ataxia lymphocytes assessed as cell viability by measuring live cells at 250 nM after 48 hrs by calceinAM ester/ethidium homodimer-1 staining based flow cytometry (reference value: 89.3%); design: species or system Friedreich's ataxia lymphocyte; conditions: read-out: Activity
[13] = system: Friedreich's ataxia lymphocyte; experiment: Cytoprotective activity against rotenone-induced cytotoxicity in human Friedreich's ataxia lymphocytes assessed as increase in cell viability at 250 to 2500 nM preincubated for 12 hrs followed by complex 1 inhibitor rotenone addition measured after 16 hrs by calceinAM ester/ethidium homodimer-1 staining based flow cytometry; type: functional
[14] = Cytotoxicity against human Friedreich's ataxia lymphocytes assessed as cell viability by measuring live cells at 2500 nM after 24 hrs by calceinAM ester/ethidium homodimer-1 staining based flow cytometry (reference value: 88.2%); design: species or system Friedreich's ataxia lymphocyte; conditions: read-out: Activity
[15] = system: Friedreich's ataxia lymphocyte; experiment: (§2) Induction of mitochondrial biogenesis in FRDA patient derived Friedreich's ataxia lymphocytes assessed as increase in COX-1/SDH-A protein levels at 250 nM after 24 to 48 hrs by ELISA; type: functional; conditions: Homo sapiens
[16] = (§3) Cytoprotective activity against BSO-treated human Friedreich's ataxia fibroblasts assessed as increase in cell viability incubated overnight followed by BSO addition measured after 48 hrs by calceinAM ester/ethidium homodimer-1 staining based flow cytometry; type: functional
[17] = organism: Homo sapiens; experiment: as §3; type: functional
[18] = system: Friedreich's ataxia lymphocyte; experiment: Increase in total ATP levels in human Friedreich's ataxia lymphocytes at 0.1 to 0.5 uM after 24 hrs by bioluminescence assay; type: functional, cell-based
[19] = Induction of inner mitochondrial membrane potential depolarization in human Friedreich's ataxia lymphocytes assessed as JC-1 aggregates at 250 nM after 16 hrs by JC1-staining based flow cytometry (reference value: 83%); type: functional, Friedreich's ataxia lymphocyte
[20] = Cytotoxicity against human Friedreich's ataxia lymphocytes assessed as cell viability by measuring dead cells at 2500 nM after 24 hrs by calceinAM ester/ethidium homodimer-1 staining based flow cytometry (reference value: 11.2%); conditions: friedreich's ataxia lymphocyte, 2.5 µM
[21] = as §1; type: functional, Homo sapiens, Friedreich's ataxia lymphocyte
[22] = as §2; type: functional, Homo sapiens, Friedreich's ataxia lymphocyte
[23] = system: Friedreich's ataxia lymphocyte; experiment: Increase in total ATP levels in human Friedreich's ataxia lymphocytes at 0.5 to 2.5 uM after 24 hrs by bioluminescence assay; type: functional, cell-based
[24] = system: Friedreich's ataxia lymphocyte; experiment: Increase in total ATP levels in human Friedreich's ataxia lymphocytes at 100 nM after 24 hrs by bioluminescence assay; type: functional, cell-based
[25] = organism: Mus musculus; experiment: Substrate activity at NADH-ubiquinone oxidoreductase in mouse liver mitochondrial membrane fractions assessed as induction of electron flow from complex-1 by measuring NADH oxidation at 5 uM after 5 mins in presence of complex 1 blocker rotenone at 0.1 uM using NADH and coenzyme Q1; type: cell membranes
[26] = system: Friedreich's ataxia lymphocyte; experiment: Inhibition of DEM-induced ROS production in human Friedreich's ataxia lymphocytes incubated for 16 hrs followed by DEM treatment for 80 mins by DCFH-DA dye based flow cytometry; type: functional, cell-based
[27] = Increase in frataxin protein expression levels in FRDA patient derived Friedreich's ataxia lymphocytes at 50 nM after 24 to 48 hrs by ELISA relative to control; type: functional, Homo sapiens, Friedreich's ataxia lymphocyte
[28] = organism: Homo sapiens; experiment: Cytoprotective activity against BSO-treated human Friedreich's ataxia fibroblasts assessed as increase in cell viability at 25 to 50 nM incubated overnight followed by BSO addition measured after 48 hrs by calceinAM ester/ethidium homodimer-1 staining based flow cytometry; type: functional
[29] = Induction of mitochondrial biogenesis in FRDA patient derived Friedreich's ataxia lymphocytes assessed as increase in COX-1/SDH-A protein levels at 50 nM after 24 to 48 hrs by ELISA relative to control; type: functional, Homo sapiens, Friedreich's ataxia lymphocyte
[30] = system: Friedreich's ataxia lymphocyte; experiment: Increase in total ATP levels in human Friedreich's ataxia lymphocytes at 0.1 uM after 24 hrs by bioluminescence assay; type: functional, cell-based
[31] = system: Friedreich's ataxia lymphocyte; experiment: Restoration of total aconitase activity in FRDA patient derived Friedreich's ataxia lymphocytes at 50 to 250 nM after 5 days by colorimetric assay; type: functional, cell-based; conditions: Homo sapiens

Row | SMILES | Activity [2] [%] | Activity [3] | viability at 24 h, 0.25 µM [5] [%] | Activity [6] [%] | Activity [7] [%] | Activity [8] [%] | viability at 48 h, 2.5 µM [9] [%] | Activity [10] [%] | Activity [11] [%] | viability at 48 h, 0.25 µM [12] [%] | Activity [13] | viability at 24 h, 2.5 µM [14] [%] | Activity [15] | EC50 [16] [nM] | Activity [17] | Activity [19] [%] | Activity [20] [%] | Activity [23] | Activity [24] | inhibition [26] | further results
1 | CCCCCCCCCCCCCCCCCc1cc2nc3ccc(N(C)C)cc3sc-2cc1=[N+](C)C.[I-] | 15.2 | inactive | 91 | 23.4 | 8.8 | 12.2 | 86.2 | 13.5 | 77.1 | 87.7 | Active | 89.2 | inactive | 48 | Dose-dependent effect | 85.3 | 10.5 | – | – | – | inhibition [1]: Active; Activity [4]: inactive; Activity [18]: Active
2 | CCCCCc1cc2nc3ccc(N(C)C)cc3sc-2cc1=[N+](C)C.[I-] | 16.9 | – | 82.6 | 70.9 | 17.2 | 21 | 4.4 | 95.2 | 31.4 | 78.7 | Active | 37.5 | – | 66 | Dose-dependent effect | 83.5 | 62.4 | inactive | inactive | – | inhibition [1]: Active; Activity [21]: >=15%; Activity [22]: >=20%; Activity [25]: Active
3 | CCCCCCCCCCCCCCCc1cc2nc3ccc(N(C)C)cc3sc-2cc1=[N+](C)C.[I-] | 14.2 | inactive | 89.4 | 28.4 | 10.3 | 14.5 | 68.7 | 31.2 | 73 | 85.4 | Active | 78.2 | inactive | 31 | Dose-dependent effect | 86.2 | 21.4 | inactive | – | Dose-dependent effect | Activity [27]: >=10%; Activity [28]: Active; Activity [29]: >=15%; Activity [30]: Active
4 | CCCCCCCCCCCCCCCCCc1cc2nc3ccc(N4CCOCC4)cc3sc-2cc1=[N+]1CCOCC1.[I-] | 16 | inactive | 91.3 | 20.7 | 8.6 | 12.4 | 79 | 20.8 | 79.8 | 87.4 | Active | 87.9 | inactive | 52 | Dose-dependent effect | 84.2 | 12 | – | – | – | inhibition [1]: Active; Activity [4]: inactive; Activity [18]: Active
5 | CCCCCCCCCCCc1cc2nc3ccc(N(C)C)cc3sc-2cc1=[N+](C)C.[I-] | 17.4 | inactive | 89.5 | 46.9 | 10.2 | 14.2 | 16.2 | 83.5 | 54.8 | 85.7 | Active | 45.1 | inactive | 35 | Dose-dependent effect | 82.9 | 54.7 | inactive | inactive | Dose-dependent effect | Activity [27]: >=10%; Activity [28]: Active; Activity [29]: >=15%
6 | CCCCCCCCCCCCCCCCc1cc2nc3ccc(N(C)C)cc3sc-2cc1=[N+](C)C.[I-] | 18.2 | inactive | 91.4 | 23.3 | 8.4 | 10.5 | 81.2 | 18.6 | 77 | 89.4 | Active | 87 | inactive | 29 | Dose-dependent effect | 82.1 | 13 | – | – | Dose-dependent effect | Activity [4]: inactive; Activity [27]: >=10%; Activity [28]: Active; Activity [29]: >=15%; Activity [18]: Active; Activity [25]: Active; Activity [31]: Active
7 | CCCCCCCCCCCCCc1cc2nc3ccc(N(C)C)cc3sc-2cc1=[N+](C)C.[I-] | 17.6 | – | 89.3 | 72.2 | 10.3 | 13.1 | 21.6 | 78 | 30.6 | 86.7 | Active | 41.3 | – | 37 | Dose-dependent effect | 82.8 | 58.5 | inactive | inactive | Dose-dependent effect | Activity [21]: >=15%; Activity [28]: Active; Activity [22]: >=20%
8 | CN(C)c1ccc2nc3ccc(=[N+](C)C)cc-3sc2c1 [METHYLENE BLUE ANHYDROUS] | – | – | 85.4 | – | – | – | 15.4 | – | – | 77.5 | Active | 60.2 | – | – | Dose-dependent effect | – | – | inactive | inactive | Dose-dependent effect | Activity [25]: Active; Activity [31]: Active
9 | CN(C)c1ccc2nc3ccc(N(C)C)cc3[s+]c2c1.[Cl-] [METHYLENE BLUE ANHYDROUS] | 20.2 | – | – | 51.2 | 14.3 | 22.5 | – | 84.3 | 49 | – | – | – | – | 75 | – | 80.3 | 39.6 | – | – | – | Activity [21]: >=15%; Activity [27]: >=10%; Activity [29]: >=15%; Activity [22]: >=20%
